Laboratory results reported in the supplement of paper PMC10307832.

Tests used:
Assay in all cases: relative viability (nuclei count vs DMSO), 5 days (fraction); higher = more cells survive
[1] = compound: Cc1cnc(CNC(=O)c2c(=O)c3ccc(N4CCCN(C)CC4)nc3n3c2sc2ccccc23)cn1 [CX-5461] + O=C(c1cc(Cc2n[nH]c(=O)c3ccccc23)ccc1F)N1CCN(C(=O)C2CC2)CC1 [Olaparib] (partner 8 µM)
Outline: (§1)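 Values are medians from duplicate plates. Each reflects relative viability, defined as the nuclei count of treated wells over that of vehicle wells. Lung cancer cell lines in 1536-well plates were pin-tool dosed one day after seeding with one drug alone or with a fixed anchor-drug dose plus five library-drug doses (not always all listed) in √10 steps, then fixed, stained and imaged at 4× after 5 days.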

[2] = compound: Cc1cnc(CNC(=O)c2c(=O)c3ccc(N4CCCN(C)CC4)nc3n3c2sc2ccccc23)cn1 [CX-5461] + Nc1nc2[nH]cc(CCc3ccc(C(=O)N[C@@H](CCC(=O)O)C(=O)O)cc3)c2c(=O)[nH]1 [Pemetrexed] (partner 0.2 µM)
Outline: as §1

[3] = compound: O=C(Nc1cc(C(F)(F)F)cc(C(F)(F)F)c1)c1cc(Cl)ccc1O [IMD-0354] + O=C(CCCCCCC(=O)Nc1ccccc1)NO [Vorinostat] (partner 1 µM)
Outline: as §1

[4] = compound: O=C(Nc1cc(C(F)(F)F)cc(C(F)(F)F)c1)c1cc(Cl)ccc1O [IMD-0354] + CS(=O)(=O)N1CCN(Cc2cc3nc(-c4cccc5[nH]ncc45)nc(N4CCOCC4)c3s2)CC1 [Pictilisib] (partner 1 µM)
Outline: as §1

Cell Line	relative viability ([1]; first compound 0.01 µM)	relative viability ([1]; first compound 0.03162 µM)	relative viability ([1]; first compound 0.1 µM)	relative viability ([1]; first compound 0.3162 µM)	relative viability ([1]; first compound 1 µM)	relative viability ([2]; first compound 0.01 µM)	relative viability ([2]; first compound 0.03162 µM)	relative viability ([2]; first compound 0.1 µM)	relative viability ([2]; first compound 0.3162 µM)	relative viability ([2]; first compound 1 µM)	relative viability ([3]; first compound 0.04 µM)	relative viability ([3]; first compound 0.1265 µM)	relative viability ([3]; first compound 0.4 µM)	relative viability ([3]; first compound 1.265 µM)	relative viability ([3]; first compound 4 µM)	relative viability ([4]; first compound 0.04 µM)	relative viability ([4]; first compound 0.1265 µM)	relative viability ([4]; first compound 0.4 µM)	relative viability ([4]; first compound 1.265 µM)	relative viability ([4]; first compound 4 µM)
201T	0.888	0.841	0.856	0.84	0.793	0.324	0.302	0.329	0.318	0.318	0.958	1.07	0.813	0.537	0.31	0.785	0.661	0.584	0.59	0.41
A549	0.487	0.418	0.31	0.0579	0.0629	–	–	–	–	–	–	–	–	–	–	0.655	0.547	0.237	0.0721	0.124
A-427	0.802	0.772	0.626	0.247	0.465	0.98	0.908	0.927	0.967	0.714	0.891	0.855	0.397	0.164	0.162	0.749	0.683	0.674	0.164	0.116
ABC-1	0.798	–	1.04	0.594	0.517	–	–	–	–	–	1.1	1.22	0.575	–	0.443	0.753	0.643	0.447	0.25	0.263
BEN	1.12	1.06	1.2	1.02	0.737	0.75	0.742	0.711	0.759	0.556	0.586	0.667	0.48	0.441	0.391	0.639	0.57	0.369	0.294	0.211
CAL-12T	0.732	0.747	0.699	0.634	0.508	1.29	1.29	1.09	1.1	0.86	1.1	0.912	0.411	0.25	0.227	0.373	0.548	0.315	0.189	0.178
COR-L23	0.36	0.338	0.299	0.3	0.185	0.283	0.187	0.207	0.157	0.201	0.419	0.466	0.403	0.0935	0.149	0.636	0.646	0.371	0.131	0.211
COR-L 105	0.658	0.654	0.718	0.675	0.447	1.13	0.943	1.03	1.16	0.706	0.863	0.771	0.672	0.679	0.378	0.439	0.351	0.303	0.278	0.293
Calu-6	0.523	0.546	0.482	0.543	0.253	–	–	–	–	–	–	–	–	–	–	0.988	0.87	0.379	0.121	0.0686
ChaGo-K-1	0.381	0.403	0.433	0.442	0.378	0.251	0.256	0.243	0.214	0.255	0.851	0.741	0.519	0.244	0.255	1.11	1.22	0.495	0.216	0.301
EBC-1	0.684	0.701	0.595	0.706	0.579	–	–	–	–	–	–	–	–	–	–	0.421	0.327	0.29	0.153	0.157
EKVX	0.931	0.901	0.983	–	0.73	0.457	0.394	0.437	–	0.322	0.469	0.754	0.556	0.691	0.359	0.477	0.465	–	0.389	0.174
EMC-BAC-2	0.452	0.476	0.383	0.343	0.324	0.435	0.439	0.395	0.443	0.399	0.547	0.473	0.419	–	0.439	0.647	0.545	0.41	0.416	0.225
EPLC-272H	0.712	0.871	0.785	0.74	0.493	0.319	0.382	0.367	0.402	0.377	0.285	0.463	0.754	0.172	0.338	0.327	0.265	0.231	0.264	0.103
H3255	0.558	0.543	0.578	0.531	0.497	0.608	0.564	0.553	0.557	0.57	0.743	0.796	0.587	0.43	0.288	0.469	0.421	0.342	0.34	0.251
HARA	0.82	0.67	0.793	0.876	0.556	0.204	0.272	0.27	0.208	0.253	0.562	0.507	0.355	0.265	0.072	0.598	0.3	0.393	0.116	0.193
HCC-15	0.607	0.721	0.625	0.693	0.538	0.232	0.232	0.215	0.233	0.204	0.931	0.799	0.516	0.327	0.2	0.632	0.696	0.437	0.14	0.133
HCC-44	0.966	1.04	1.03	1	1.01	0.56	0.694	0.644	0.649	0.55	1.03	1.05	1.07	0.873	0.364	0.634	0.534	0.415	0.12	0.156
